The results in this text go back to US10005818B2, “Derivative peptide compounds and methods of use” (REALTA HOLDINGS, LLC, priority 2010, dated 2018).

Data set [1] has as its system acute kidney injury. Description: Acute kidney injury after xenotransfusion in AIHTR rat model (IVIG vs PIC1). The data set is classed as in vivo. Particulars: prophylaxis 40 mg/animal. As for the experimental part:
For both experiments, animals allotted to the saline control group received NS prior to huRBC transfusion whereas the CVF group received 130 μg CVF (Complement Technologies, Inc.) intra-peritoneum (I.P.) 24 hours prior to the huRBC transfusion.
Using weight-based doses of ketamine and acepromazine, animals were sedated throughout the course of the experiment with periodic monitoring of vital signs. Blood samples were collected into EDTA microtainer tubes (BD) from the animals prior to the huRBC transfusion and then at 30 seconds, 5 minutes, 20 minutes, 60 minutes and 120 minutes after the huRBC transfusion. […] These samples were kept shaking at room temperature prior to processing and centrifuged at 2655×g for five minutes to separate out the plasma and sediment the RBCs. Plasma was aliquoted and the RBC pellet was processed separately as described below. Upon completion of the final (120 minutes or 360 minutes) blood draw, the animal was euthanized using Fatal Plus (Vortech). A necropsy was completed to collect organs (liver, spleen and bilateral kidney) for histopathology. […] Hematoxylin and eosin (H&E) stained sections were reviewed by a blinded pathologist.
To ascertain if the intravascular toxic free Hb would cause acute kidney injury, the animals were monitored for 6 hours post-transfusion.

Data set [2] concerns complement activation in factor B-depleted human sera. It is filed as biochemical. A digest of the protocol:
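Peptides at 0.77 mM final in factor B-depleted human serum, or serially diluted in it, incubated 1 h at 37 °C. Then diluted into GVBS++ with sensitized sheep RBCs for 1 h at 37 °C, with hemolysis read at 412 nm. Percent lysis relative to serum-only control, soluble peptides normalized to water and insoluble ones to DMSO, triplicate means.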

Data set [3] in a line: Solubility in water. The data set is classed as physicochemical.
Setting [4] is: Table 5, sarcosine substitution peptides.
Setting [5] is: Table 7, PEGylated and sarcosine/alanine substitution peptides.

Square brackets hold non-standard residues; d marks the D form. Peptide text beside a SMILES is read from it. Sar = CNCC(=O)O

Turning to Immune globulin intravenous [IVIG], in data set [1], the “gross appearance of kidneys at necropsy” value was “looked darker and enlarged”; the kidney weight entry was “significant increase in weight compared to animals receiving PIC1”. Besides, in data set [1] (6 hours post-transfusion), the “gross hematuria / urine appearance” value is listed as “two of the three animals”. In addition, the kidney histopathology entry in data set [1] (H&E) is reported as “early acute tubular necrosis”.
Regarding `CC[C@H](C)[C@H](N)C(=O)N[C@@H](C)C(=O)N[C@@H](CC(C)C)C(=O)N(C)CC(=O)N[C@@H](CC(C)C)C(=O)N[C@@H](CCC(=O)O)C(=O)N1CCC[C@H]1C(=O)N[C@H](C(=O)N[C@@H](CS)C(=O)N[C@@H](CS)C(=O)N[C@@H](CCC(N)=O)C(=O)N[C@@H](CCC(=O)O)C(=O)N[C@@H](CCCNC(=N)N)C(=O)N[C@@H](C)C(=O)N[C@@H](C)C(=O)O)[C@@H](C)CC` [PA-I4Sar] (H-IAL[Sar]LEPICCQERAA-OH; N-terminus and C-terminus assumed), the “Hemolysis (%)” value in data set [2] is 93.19%. In addition, the Solubility in water result in data set [3] (setting [4]) was “Yes”.
For the molecule `CC[C@H](C)[C@H](N)C(=O)N[C@@H](C)C(=O)N[C@@H](CC(C)C)C(=O)N[C@H](C(=O)N[C@@H](CC(C)C)C(=O)N(C)CC(=O)N(C)CC(=O)N[C@H](C(=O)N[C@@H](CS)C(=O)N[C@@H](CS)C(=O)N[C@@H](CCC(N)=O)C(=O)N[C@@H](CCC(=O)O)C(=O)N[C@@H](CCCNC(=N)N)C(=O)N[C@@H](C)C(=O)N[C@@H](C)C(=O)O)[C@@H](C)CC)[C@@H](C)CC` [Peptide E6SarP7Sar] (H-IALIL[Sar][Sar]ICCQERAA-OH; N-terminus and C-terminus assumed), in data set [2], the “Hemolysis (%)” value was 3.57%. Besides, the Solubility in water result in data set [3] (setting [5]) was “Yes”.
On to `CC[C@H](C)[C@H](NC(=O)[C@H](CC(C)C)NC(=O)[C@H](C)NC(=O)CNC)C(=O)N[C@@H](CC(C)C)C(=O)N[C@@H](CCC(=O)O)C(=O)N1CCC[C@H]1C(=O)N[C@H](C(=O)N[C@@H](CS)C(=O)N[C@@H](CS)C(=O)N[C@@H](CCC(N)=O)C(=O)N[C@@H](CCC(=O)O)C(=O)N[C@@H](CCCNC(=N)N)C(=O)N[C@@H](C)C(=O)N[C@@H](C)C(=O)O)[C@@H](C)CC` [PA-I1Sar], for which the “Hemolysis (%)” value in data set [2] was determined as 84.49%. Also, the Solubility in water result in data set [3] (setting [4]) is “No”.
For `CC[C@H](C)[C@H](N)C(=O)N[C@@H](C)C(=O)N[C@@H](CC(C)C)C(=O)N[C@H](C(=O)N[C@@H](CC(C)C)C(=O)N[C@@H](CCC(=O)O)C(=O)N(C)CC(=O)N[C@H](C(=O)N[C@@H](CS)C(=O)N[C@@H](CS)C(=O)N[C@@H](CCC(N)=O)C(=O)N[C@@H](CCC(=O)O)C(=O)N(C)CC(=O)N[C@@H](C)C(=O)N[C@@H](C)C(=O)O)[C@@H](C)CC)[C@@H](C)CC` [Peptide R13SarP7Sar, IALILE(Sar)ICCQE(Sar)AA] (H-IALILE[Sar]ICCQE[Sar]AA-OH), the “Hemolysis (%)” value in data set [2] is recorded as 26.35%. In data set [3] (setting [5]), the Solubility in water entry is listed as “No”.
